Data from patent US20180002692A1, “Sequence Specific and Organism Specific Antimicrobials and Related Materials and Methods” (priority 2015, published 2018).
Entries after “also recorded” stand apart in the source; their conditions may differ.

Tests used:
[1] = tested on: ampicillin-resistant E. coli; type: cell-based; conditions: no α-TSS (no treatment)
Protocol: Three biological replicates were selected from colonies and pretreated for 16 hr with respective α-TSS concentration in liquid media. After pretreatment, the cultures were diluted 1:100,000 into liquid media with respective concentration of ampicillin and α-TSS and allowed to grow with shaking at 37° C. for 24 hr. The final OD at 562 nm at 24 hr was used for data analysis.
Data fitting analysis was performed in Origin Pro 6.1. Data was fit to a sigmoidal/decay Boltzman function.
The degree of re-sensitization exerted by α-TSS in presence of varying concentrations of ampicillin above and below the MIC determined for α-TSS was then evaluated.

[2] = tested on: CRE E. coli; test: Growth of clinical strain CRE E. coli; type: cell-based, Escherichia coli; conditions: 10 μM
Protocol: (§1) MG1655 E. coli cultures were started from individual colonies from 2% LB and 1.5% agar into M9 media. They were diluted 1:10,000 from overnight culture into fresh M9 with respective treatment and grown at 37° C. with 225 rpm shaking. Clinical strains were started from individual colonies grown on cation adjusted Mueller Hinton Broth with 1.5% agar into liquid CAMHB. These were diluted 1:10,000 into CAMHB medium with respective treatment and grown at 37° C. with 225 rpm shaking. Optical density measurements were taking using a Tecan GENios at 562 nm with a bandwidth of 35 nm. Lag time was calculated using Growth Rates Made Easy (Hall et al. Mol. Biol. Evol. 31(1):232-238).
(§2) MDR E. coli was inhibited by four of the six oligomers tested (α-folC, α-ffh, α-lexA, and α-rpsD), extended-spectrum beta-lactamase (ESBL) K. pneumoniae was inhibited by two of the antisense oligomers (α-fnrS and α-rpsD), and New Delhi metallo-β-lactamase (NDM-1) K. pneumoniae was inhibited by one of the oligomers tested (α-rpsD) (FIGS. 15-16).

[3] = tested on: MDR E. coli; test: Growth of clinical strain MDR E. coli; type: cell-based; conditions: 10 μM
Protocol: as §1, §2

[4] = tested on: MG1655 E. coli; test: Colony forming unit analysis of MG1655; type: cell-based; conditions: 10 μM, six and eight hours
Description: The effect of α-lexA, α-fnrS, and α-rpsD on cell viability using a colony forming unit analysis was then determine.

[5] = tested on: MDR Salmonella typhimurium; test: Growth of clinical strain MDR S. typhimurium; type: cell-based; conditions: 10 μM
Protocol: as §1, §2

[6] = tested on: MG1655 E. coli; test: Growth (optical density, lag time) of MG1655; type: cell-based; conditions: 10 μM antisense inhibitor; for growth of MG1655 E. coli cultures: 24 h
Protocol: as §1, with “31(1):232-238). […]” for “31(1):232-238).”

[7] = tested on: ESBL K. pneumoniae; test: Growth of clinical strain ESBL K. pneumoniae; type: cell-based, Klebsiella pneumoniae; conditions: 10 μM
Protocol: as §1, §2

[8] = tested on: ampicillin-resistant E. coli; type: cell-based; conditions: for growth of drug-resistant E. coli in presence of ampicillin: antisense oligomer plus 300 μg/mL ampicillin
Protocol: pAKgfp1 plasmid was obtained from Addgene for TEM-1 β-lactamase resistance gene, bla (43). The plasmid was cloned into chemically competent Zymo DH5a E. coli (Expressys). Untransformed Zymo DH5a was used as a control strain for β-lactamase activity assays. Liquid cultures were grown in 2% LB, incubated at 37° C. and shaken at 225 rpm. Solid cultures were grown on 2% LB broth, 1.5% agar at 37° C. Ampicillin sodium salt (Sigma Aldrich) was used for selection at a concentration of 300 μg/mL for MIC and CFU analysis. Optical density measurements were taken using a Tecan GENios at 562 nm with a bandwidth of 35 nm. All bacterial freezer stocks were stored in 40% glycerol at −80° C.

[9] = tested on: bla mRNA; test: bla mRNA expression by qPCR; type: cell-based, E. coli; conditions: 5 μM α-TSS, 25 μM α-RBS, 25 μM α-YUNR; absence of ampicillin
Protocol: Three biological replicates were used for bla expression analysis. Cultures were pretreated overnight in respective PNA and liquid media in the absence of ampicillin and collected for RNA at 16 hr.
50 μL of the respective culture was added to 100 μL of Bacteria RNAprotect (Qiagen) and incubated at room temperature for 5 min. The cells were then pelleted via centrifugation for 3 min at 10,000 rpm, the supernatant removed, and samples were flash frozen in an ethanol dry ice bath and stored at −80° C. Precautions were taken to protect RNA from RNases using RNaseZap (Life Technologies). RNA was extracted from frozen cell pellets using GeneJET RNA purification kit (Thermo Scientific) and 350-600 ng was treated with Turbo DNA-free (Ambion). 50 ng cDNA was synthesized using Maxima Universal First Stand cDNA synthesis kit (Thermo Scientific). 1.5 ng of cDNA was used for qPCR with Maxima SYBR Green qPCR master mix with ROX normalization (Thermo Scientific) using Illumina Eco qPCR system. Transcript levels were analyzed using the ΔCq method with respect to moderately expressed housekeeping gene cysG (43). Transcript levels were further analyzed for the mutant populations using the ΔΔCq method with respect to the no treatment populations.

[10] = tested on: β-lactamase; conditions: 5 μM α-TSS, 25 μM α-RBS, 25 μM α-YUNR; absence of ampicillin
Protocol: Fluorocillin™ Green 495/525 β-lactamase substrate soluble product (Life Technologies) was used at a concentration of 2.2 μM as a β-lactamase substrate and measured using a Tecan GENios microplate reader in black flat bottom 96 well plate at 485/535 nm with a bandwidth of 35 nm. Three biological replicates were grown from colonies for 12 hours liquid media in the presence of the respective antisense agents, diluted 1:10 into liquid media and Fluorocillin green, and monitored in the Tecan GENios for 5 hr at 37° C. measuring every 2 min. The slope of fluorescence measured was used as a measure of β-lactamase activity.
Using quantitative real-time polymerase chain reaction (qPCR), expression levels of the bla gene in presence of the three antisense agents were measured. Studies were carried out with 5 μM α-TSS, 25 μM α-RBS, and 25 μM α-YUNR in the absence of ampicillin.

Row | Compound | growth inhibition of CRE E. coli [2] | growth inhibition of MDR E. coli [3] | growth inhibition of MDR S. typhimurium [5] | lag time [6] | further results
1 | CC1(C)S[C@@H]2[C@H](NC(=O)[C@H](N)c3ccccc3)C(=O)N2[C@H]1C(=O)O [ampicillin, Ampicillin, reference compound] |  |  |  |  | slope of the transition from resistant to sensitive (Boltzman fit) [1]: −0.0051 ODmLμg^−1; ampicillin concentration up to which growth is without inhibition ([1]; 24 hr): 300 µg/mL; ampicillin concentration where no growth was observed ([1]; 24 hr): 700 µg/mL
2 | KFFKFFKFFK -O-gctttcattccg (antisense GCTTTCATTCCG; all peptide nucleic acid (PNA); (KFF)3K cell-penetrating peptide joined to the N-terminus through an O-linker) [α-lexA, 12-mer antisense PNA centered on start codon of lexA, O-linker to (KFF)3K] | inhibited | inhibited | inhibited | significantly increased lag time | viable cells at six and eight hours [4]: prevented significant increase in viable cells; also recorded: prevents significant increases in viable MG1655 E. coli cells; growth of MG1655 E. coli cultures [6]: completely inhibited; also recorded: completely prevented cell growth; also recorded: Complete inhibition
3 | KFFKFFKFFK -O-taatcatggtat (antisense TAATCATGGTAT; all peptide nucleic acid (PNA); (KFF)3K cell-penetrating peptide joined to the N-terminus through an O-linker) [α-folC, 12-mer antisense PNA centered on start codon of folC, O-linker to (KFF)3K] | inhibited | inhibited | inhibited |  | 
4 | KFFKFFKFFK -O-tcaaacattgtc (antisense TCAAACATTGTC; all peptide nucleic acid (PNA); (KFF)3K cell-penetrating peptide joined to the N-terminus through an O-linker) [α-ffh, 12-mer antisense PNA centered on start codon of ffh, O-linker to (KFF)3K] | inhibited | inhibited | inhibited |  | 
5 | KFFKFFKFFK-O-cacctgcaagag (antisense CACCTGCAAGAG; all peptide nucleic acid (PNA); (KFF)3K cell-penetrating peptide joined to the N-terminus through an O-linker) [α-fnrS] | inhibited |  | inhibited | significantly increased lag time | growth inhibition of ESBL K. pneumoniae [7]: inhibited; growth of MG1655 E. coli cultures [6]: completely inhibited; also recorded: completely prevented cell growth; also recorded: Complete inhibition
6 | KFFKFFKFFK-O-cctttttcaata (antisense CCTTTTTCAATA; PNA, (KFF)3K peptide via O-linker, chemistry not fully specified) [α-RBS] |  |  |  |  | re-sensitization of drug resistant E. coli to ampicillin [8]: re-sensitized drug resistant E. coli to ampicillin; also recorded: re-sensitization of drug resistant E. coli to ampicillin; also recorded: re-sensitize; growth in absence of ampicillin (toxicity of antisense agent) ([8]; absence of ampicillin): non-toxic effect; also recorded: No inhibition; growth of drug-resistant E. coli in presence of ampicillin [8]: hindered cell growth; also recorded: impact growth; also recorded: significant antibiotic effect; minimum inhibitory concentration (MIC) ([8]; in presence of 300 μg/mL ampicillin, after overnight pretreatment with antisense agent): 25 µM; bla mRNA expression [9]: did not affect bla transcript levels; also recorded: did not significantly reduce bla expression
7 | KFFKFFKFFK-O-gaataagggcga (antisense GAATAAGGGCGA; PNA, (KFF)3K peptide via O-linker, chemistry not fully specified) [α-YUNR] |  |  |  |  | growth of drug-resistant E. coli in presence of ampicillin [8]: no impact on cell growth; β-lactamase activity [10]: no impact on protein activity
8 | KFFKFFKFFK-O-ttcgacatcaac (antisense TTCGACATCAAC; PNA, (KFF)3K peptide via O-linker, chemistry not fully specified) [α-gyrB, 12-mer antisense PNA centered on start codon of gyrB, O-linker to (KFF)3K] | inhibited |  | inhibited | significantly increased lag time | 
